The compounds below were run against HSET full length protein (Homo sapiens (Human), UniProt Q9BW19) (assay: HSET ADP-Glo Assay S - 3 μM ATP). Details: 5 nM HSET, 70 μg/mL microtubule, 80 min at rt, read-out: COMBINED HSET ADP GLO IC50.
Type: biochemical
Outline: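 ADP-Glo luminescence read-out: ATPase reaction at 3 μM ATP, 80 min at room temperature, after a 10 min compound preincubation. Enzyme was full-length human HSET at 5 nM, stimulated by 70 μg/mL paclitaxel-stabilised bovine microtubules in HEPES pH 6.8 buffer with MgCl2, EGTA, Triton X-100 and DTT.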

HSET full length protein, sequence (Q9BW19 whole entry): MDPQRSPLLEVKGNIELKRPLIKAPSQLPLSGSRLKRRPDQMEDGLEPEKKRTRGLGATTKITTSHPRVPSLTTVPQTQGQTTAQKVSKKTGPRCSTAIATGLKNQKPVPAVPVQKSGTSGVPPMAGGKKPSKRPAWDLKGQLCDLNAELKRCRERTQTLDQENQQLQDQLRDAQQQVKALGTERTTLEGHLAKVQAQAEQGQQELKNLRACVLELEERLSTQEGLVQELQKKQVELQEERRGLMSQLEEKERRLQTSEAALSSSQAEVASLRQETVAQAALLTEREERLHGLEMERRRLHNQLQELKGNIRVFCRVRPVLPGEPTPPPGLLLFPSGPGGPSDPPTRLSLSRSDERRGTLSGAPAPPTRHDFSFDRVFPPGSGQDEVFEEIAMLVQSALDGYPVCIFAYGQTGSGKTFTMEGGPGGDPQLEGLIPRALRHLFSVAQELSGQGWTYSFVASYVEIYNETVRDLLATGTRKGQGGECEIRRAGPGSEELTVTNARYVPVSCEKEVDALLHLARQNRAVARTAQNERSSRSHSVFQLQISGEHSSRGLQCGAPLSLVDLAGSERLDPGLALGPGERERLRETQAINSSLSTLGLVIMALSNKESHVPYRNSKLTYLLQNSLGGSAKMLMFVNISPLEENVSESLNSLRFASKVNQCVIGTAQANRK

Compound	IC50
CCCOC(=O)c1sc(N(C)C(=O)CCNC(=O)c2cc(Cl)cc(-c3noc(C)n3)c2)nc1C [Example 233, Propyl 2-(3-(3-chloro-5-(5-methyl-1,2,4-oxadiazol-3-yl)benzamido)-N-methylpropanamido)-4-methylthiazole-5-carboxylate]	0.03 µM
CCCCCc1cc(NC(=O)[C@@H]2C[C@H](Nc3nccc4ccc(-c5noc(C)n5)cc34)CN2C)nn1C [Example 238, (2S,4S)-1-methyl-4-((7-(5-methyl-1,2,4-oxadiazol-3-yl)isoquinolin-1-yl)amino)-N-(1-methyl-5-pentyl-1 H-pyrazol-3-yl)pyrrolidine-2-carboxamide]	6.74 µM
CCCOC(=O)c1sc(NC(=O)[C@@H]2C[C@H](Nc3nccc4ccc(-c5noc(C)n5)cc34)CN2)nc1C [Example 239, Propyl 4-methyl-2-((2S,4S)-4-((7-(5-methyl-1,2,4-oxadiazol-3-yl)isoquinolin-1-yl)amino)pyrrolidine-2-carboxamido)thiazole-5-carboxylate]	0.119 µM
CCCOC(=O)c1sc(C(=O)N2CC[C@H](NC(=O)c3cccc(-c4noc(C)n4)c3)C2)nc1C [Example 240, Propyl (S)-4-methyl-2-(3-(3-(5-methyl-1,2,4-oxadiazol-3-yl)benzamido)pyrrolidine-1-carbonyl)thiazole-5-carboxylate]	0.098 µM
CCCOC(=O)c1sc(C(=O)N2CC[C@@H](Nc3nccc4ccc(-c5noc(C)n5)cc34)C2)nc1C [Example 244, Propyl (R)-4-methyl-2-(3-((7-(5-methyl-1,2,4-oxadiazol-3-yl)isoquinolin-1-yl)amino)pyrrolidine-1-carbonyl)thiazole-5-carboxylate]	0.608 µM
CCCOC(=O)c1cc(C(=O)N2CC[C@H](Nc3nccc4ccc(-c5noc(C)n5)cc34)C2)nn1C [Example 245, Propyl (S)-1-methyl-3-(3-((7-(5-methyl-1,2,4-oxadiazol-3-yl)isoquinolin-1-yl)amino)pyrrolidine-1-carbonyl)-1 H-pyrazole-5-carboxylate]	7.47 µM
Cc1nc(-c2ccc3ccnc(N[C@H]4CCN(C(=O)c5cc(C6CC6)n(C)n5)C4)c3c2)no1 [Example 247, (S)-(5-cyclopropyl-1-methyl-1 H-pyrazol-3-yl)(3-((7-(5-methyl-1,2,4-oxadiazol-3-yl)isoquinolin-1-yl)amino)pyrrolidin-1-yl)methanone]	13.6 µM
Cc1nc(-c2ccc3ccnc(N[C@H]4CCN(C(=O)c5cc(C(C)C)n(C)n5)C4)c3c2)no1 [Example 249, (S)-(5-isopropyl-1-methyl-1 H-pyrazol-3-yl)(3-((7-(5-methyl-1,2,4-oxadiazol-3-yl)isoquinolin-1-yl)amino)pyrrolidin-1-yl)methanone]	14.5 µM
Cc1nc(-c2ccc3ccnc(N[C@H]4CCN(C(=O)c5cc(C(C)C)[nH]n5)C4)c3c2)no1 [Example 253, (S)-(5-isopropyl-1 H-pyrazol-3-yl)(3-((7-(5-methyl-1,2,4-oxadiazol-3-yl)isoquinolin-1-yl)amino)pyrrolidin-1-yl)methanone]	3.41 µM
Cc1nc(-c2ccc3ccnc(N[C@H]4CCN(C(=O)c5cc(C(C)(C)C)[nH]n5)C4)c3c2)no1 [Example 254, (S)-(5-(tert-butyl)-1 H-pyrazol-3-yl)(3-((7-(5-methyl-1,2,4-oxadiazol-3-yl)isoquinolin-1-yl)amino)pyrrolidin-1-yl)methanone]	6.1 µM

Further lines, results first:

IC50	Compound
0.044 µM	Cc1nc(-c2ccc3ccnc(NC4CN(C(=O)Nc5nc(C)c(C(C)(C)C)s5)C4)c3c2)no1 [Example 232, N-(5-(tert-butyl)-4-methylthiazol-2-yl)-3-((7-(5-methyl-1,2,4-oxadiazol-3-yl)isoquinolin-1-yl)amino)azetidine-1-carboxamide]
2.1 µM	CCCOC(=O)c1sc(NC(=O)[C@@H]2C[C@H](NC(=O)c3cccc(-c4noc(C)n4)c3)CN2C)nc1C [Example 234, Propyl 4-methyl-2-((2S,4S)-1-methyl-4-(3-(5-methyl-1,2,4-oxadiazol-3-yl)benzamido)pyrrolidine-2-carboxamido)thiazole-5-carboxylate]
6.78 µM	CCCOC(=O)c1sc(NC(=O)[C@H]2C[C@@H](NC(=O)c3cccc(-c4noc(C)n4)c3)CN2C)nc1C [Example 235, Propyl 4-methyl-2-((2R,4R)-1-methyl-4-(3-(5-methyl-1,2,4-oxadiazol-3-yl)benzamido)pyrrolidine-2-carboxamido)thiazole-5-carboxylate]
2.84 µM	Cc1nc(-c2ccc3ccnc(N[C@H]4C[C@@H](C(=O)Nc5nc(C)c(C(C)(C)C)s5)N(C)C4)c3c2)no1 [Example 236, (2S,4S)-N-(5-(tert-butyl)-4-methylthiazol-2-yl)-1-methyl-4-((7-(5-methyl-1,2,4-oxadiazol-3-yl)isoquinolin-1-yl)amino)pyrrolidine-2-carboxamide]
0.1 µM	CCCOC(=O)c1sc(NC(=O)[C@@H]2C[C@H](Nc3nccc4ccc(-c5noc(C)n5)cc34)CN2C)nc1C [Example 237, Propyl 4-methyl-2-((2S,4S)-1-methyl-4-((7-(5-methyl-1,2,4-oxadiazol-3-yl)isoquinolin-1-yl)amino)pyrrolidine-2-carboxamido)thiazole-5-carboxylate]
0.03 µM	CCCOC(=O)c1sc(C(=O)N2CC[C@H](NC(=O)c3cccc(-c4nnn(C)n4)c3)C2)nc1C [Example 242, Propyl 4-methyl-2-[(3S)-3-[[3-(2-methyltetrazol-5-yl)benzoyl]amino]pyrrolidine-1-carbonyl]thiazole-5-carboxylate]
0.011 µM	CCCOC(=O)c1sc(C(=O)N2CC[C@H](Nc3nccc4ccc(-c5noc(C)n5)cc34)C2)nc1C [Example 243, Propyl (S)-4-methyl-2-(3-((7-(5-methyl-1,2,4-oxadiazol-3-yl)isoquinolin-1-yl)amino)pyrrolidine-1-carbonyl)thiazole-5-carboxylate]
1.74 µM	Cc1nc(-c2ccc3ccnc(N[C@H]4CCN(C(=O)c5nc(C)c(C(C)(C)C)s5)C4)c3c2)no1 [Example 246, (S)-(5-(tert-butyl)-4-methylthiazol-2-yl)(3-((7-(5-methyl-1,2,4-oxadiazol-3-yl)isoquinolin-1-yl)amino)pyrrolidin-1-yl)methanone]
4.14 µM	Cc1nc(-c2ccc3ccnc(N[C@H]4CCN(C(=O)c5cc(-c6ccccc6)n(C)n5)C4)c3c2)no1 [Example 248, (S)-(3-((7-(5-methyl-1,2,4-oxadiazol-3-yl)isoquinolin-1-yl)amino)pyrrolidin-1-yl)(1-methyl-5-phenyl-1 H-pyrazol-3-yl)methanone]
9.46 µM	Cc1nc(-c2ccc3ccnc(N[C@H]4CCN(C(=O)c5cnc[nH]5)C4)c3c2)no1 [Example 250, (S)-(1 H-imidazol-5-yl)(3-((7-(5-methyl-1,2,4-oxadiazol-3-yl)isoquinolin-1-yl)amino)pyrrolidin-1-yl)methanone]
5.62 µM	Cc1cc(C(=O)N2CC[C@H](Nc3nccc4ccc(-c5noc(C)n5)cc34)C2)no1 [Example 251, (5-Methylisoxazol-3-yl)-[(3S)-3-[[7-(5-methyl-1,2,4-oxadiazol-3-yl)-1-isoquinolyl]amino]pyrrolidin-1-yl]methanone]
16.4 µM	Cc1nc(-c2ccc3ccnc(N[C@H]4CCN(C(=O)c5cnn(C(C)(C)C)c5)C4)c3c2)no1 [Example 252, (1-tert-Butylpyrazol-4-yl)-[(3S)-3-[[7-(5-methyl-1,2,4-oxadiazol-3-yl)-1-isoquinolyl]amino]pyrrolidin-1-yl]methanone]

Reference: US20250084074A1, “SUBSTITUTED HETEROCYCLES AS HSET INHIBITORS” (MERCK PATENT GMBH, priority 2022, published 2025)
